The results in this text go back to patent publication US5688767A, “Treatment of endotoxin-associated disorders with cationic peptides” (priority 1996, dated 1997).

Values after ≈ are worked out from the molar mass of the structure shown.

One experiment relates to E. coli. The experiment can be described thus: microbe, parasite or virus in culture. The class given is cell-based, Escherichia coli. The protocol:
(§1) The minimum inhibitory concentrations of (MIC) of CEME, CEMA and melittin were determined for a number of different bacteria (Table 2). Briefly, cells were grown overnight at 37° C. in LB-S (Luria broth without any salt supplement) and diluted one in 10,000 in the same medium to give concentrations of about 10^4 to 10^5 CFU/ml. The broth dilutions were set up in a 96 well microtiter plate by putting 200 μl of LB-S containing the initial concentration of antibiotic or compound in column 1 and 100 μl of the same medium in columns 2-12. The compounds were diluted by taking 100 μl of broth from column 1 and mixing it with column 2, resulting in a one in two dilution. This was continued to column 10. Finally, 10 μl of bacteria were pipetted into columns 1-11, and the plates incubated overnight at 37° C. The next day the plates were scored for growth in the wells, and the MIC determined.
Bacteria included the Bort strain of E. coli (Bortolussi, et al., Inf. Immun., 25:293, 1979) that was originally derived from a case of neonatal meningitis, and which is therefore considered a relevant pathogenic strain to study, and the 0111:B4 strain of E. coli (kindly provided by Dr. D. Morrison) which is a standard source of endotoxin. (Kelly, et al., Inf. Immun., 59:4491, 1991). In addition, P. aeruginosa PA01 strain H103, P. aeruginosa M2, P. aeruginosa K799, Eschericha coli UB 1005, Enterobacter cloacae 218S, Salmonella typhimurium MS7953s, Klebsiella pneumoniae ATCC 13883, Xanthomonas maltophilia ATCC 13637, and Acinetobacter calcoacetious 8193 were employed. LPS was obtained from E. coli Bort by the technique of Westphal and Jann, (Westphal, et al., Acad. Press, Inc. NY., 5:83) and from P. aeruginosa H103 by the method of Darveau and Hancock, (Darveau, et al., J. Bacteriol, 155:831, […]). E. coli 0111:B4 LPS was purchased from Sigma.

For experiment [1], the system named is P. aeruginosa H309 Whole Cells. The experiment can be described thus: DPx binding inhibition using whole cells. More on the design: species or system Pseudomonas aeruginosa. As to conditions: DPx at 90-100% binding saturation, average of at least three trials. The protocol: For DPx binding inhibition assays using whole cells instead of purified LPS, H309 cells were prepared the same way as for the lysozyme lysis assay. The assay consisted of 10 μl of cells at an OD600 of 0.5, 990 μl of 5 mM HEPES pH 7.2 and 5 mM KCN, and the concentration of DPx that gave 90-100% binding saturation. […] Compounds were titrated in, and I50 values were determined as described above.

The subject of a further experiment is S. aureus. The experiment can be described thus: microbe, parasite or virus in culture. The class given is cell-based, Staphylococcus aureus. As to the method:
as §1

[2] abbreviates: strain UB1005, Parent of DC2 (Table 2).
Where [3] appears, read: strain RN4220, Methicillin sensitive.
Where [4] appears, read: strain SAP0017, Methicillin resistant.

`CC[C@H](C)[C@H](NC(=O)CNC(=O)[C@@H](NC(=O)[C@H](CCCCN)NC(=O)[C@H](CCCCN)NC(=O)[C@H](Cc1ccccc1)NC(=O)[C@H](CC(C)C)NC(=O)[C@H](CCCCN)NC(=O)[C@H](Cc1c[nH]c2ccccc12)NC(=O)[C@@H](N)CCCCN)[C@@H](C)CC)C(=O)NCC(=O)N[C@@H](C)C(=O)N[C@H](C(=O)N[C@@H](CC(C)C)C(=O)N[C@@H](CCCCN)C(=O)N[C@H](C(=O)N[C@@H](CC(C)C)C(=O)N[C@H](C(=O)N[C@H](C(=O)NCC(=O)N[C@@H](CC(C)C)C(=O)N1CCC[C@H]1C(=O)N[C@@H](C)C(=O)N[C@@H](CC(C)C)C(=O)N[C@@H](CCCCN)C(=O)N[C@@H](CC(C)C)C(=O)N[C@H](C(=O)N[C@@H](CCCCN)C(=O)O)[C@@H](C)O)[C@@H](C)O)[C@@H](C)O)C(C)C)C(C)C` [CEMA]: the MIC with E. coli (Escherichia coli 0111:B4) is 4 µg/mL (≈ 1.3 µM); against E. coli (Escherichia coli Bort), 8 µg/mL (≈ 2.61 µM); against E. coli (Escherichia coli UB1005 (Table 9)), 4 µg/mL (≈ 1.3 µM); with E. coli (strain DC2, Polymyxin sensitive), 0.7 µg/mL (≈ 0.228 µM); with E. coli (strain SC9251, Parent of SC9252) it was 1.4 µg/mL (≈ 0.457 µM); in the experiment with E. coli (strain SC9252, Polymyxin resistant), 1.4 µg/mL (≈ 0.457 µM). Further, the MIC in the experiment with E. coli (setting [2]) is 2.8 µg/mL (≈ 0.913 µM); with S. aureus (setting [3]) it was greater than 5.6 µg/mL; against S. aureus (setting [4]), greater than 5.6 µg/mL. The “I50, Value in μg/ml” value in experiment [1] came to 1.15 ± 0.09 µg/mL. For the same molecule, in experiment [1] (read-out: I50, Value in μM), the IC50 turned out to be 0.37 ± 0.03 µM.
For polymyxin B, the MIC in the experiment with E. coli (setting [2]) is 0.5 µg/mL; against S. aureus (setting [3]), greater than 8 µg/mL; in the experiment with S. aureus (setting [4]), greater than 8 µg/mL. Also, in experiment [1], the “I50, Value in μg/ml” value came out at 3.7 ± 1.20 µg/mL.
